Results reported in US20240174697A1, “PH-ACTIVABLE FLUORESCENT PROBES FOR TARGETING CELL ORGANELLES” (Purdue Research Foundation, priority 2021, published 2024).
“Also recorded” adds a separate entry of the source.

What was measured:
[1] = Solubility in aqueous medium / pH solutions; type: physicochemical
[2] = Absorption and fluorescence spectra at different pH solutions, pKa; type: physicochemical; conditions: in a mixture of DMSO: acetonitrile
[3] = system: primary mouse microglia; test: Confocal imaging, localization of probes in primary microglia; type: cell-based; conditions: 10 μM probe 2 hours, co-staining LysoTracker / MitoLite / DAPI
Method: A detailed protocol for the isolation and culture of primary microglia from adult mouse brains is previously described^2. Briefly, CD11^+ primary microglia were isolated from adult C57BL/6 mice aged 5-7 months of age (both male and female sexes) and cultured as follows. Mice were euthanized with CO2 following the PACUC guidelines, perfused brains were removed and cut into small pieces before homogenizing them in DPBS++with 0.4% DNase-I on the tissue dissociator at 37° C. After filtering the cells through a 70 μm filter, myelin was removed two times, first using gradient centrifugation with Percoll PLUS reagent followed by the use of myelin removal beads on the magnetic column separators. After myelin removal, CD11^+ cells were selected from the single cell suspension using the CD11^+ beads as per the manufacturer's instructions. The CD11^+ cells were finally resuspended in microglia growth media, further diluted in TIC (TGF-β, IL-34, and cholesterol containing) media containing 2% FBS before seeding 0.1×10^6 cells/500 μL/well of a 24-well plate. The cells were maintained at 37° C. and 10% CO2 with half-media change every other day until the day of compound treatment (around 12-14 div). For confocal imaging experiments, around 50,000 cells/2 mL cells were sub-cultured at the center of 35 mm glass-bottom imaging dishes (FluoroDish™ #FD35).
The localization of the fluorescent probes was visualized using confocal microscopy. The cells were incubated with 10 μM probe for 2 hours and then the media was aspirated. The cells were then incubated with 100 nM LysoTracker (1 mM stock from Thermo #L7528) or with 0.5x MitoLite (1000-fold dilution from 500x stock of AAT Bioquest #22678) for 1.5 hours. The media was aspirated, and the cells were fixed with 4% paraformaldehyde for 10 mins followed by nuclear staining with 1 μM/mL DAPI for 5 mins. For BV2 microglia grown on glass coverslips, the coverslips were removed from the wells and transferred to glass slides with a drop of anti-fade reagent (Thermo Fisher Scientific #P36930). […]

[4] = system: BV2 microglia; test: MTT assay, metabolic activity of BV2 microglia; type: cell-based, mouse; conditions: 24 hours
Method: (§1) The dried fluorescent probes powders were resuspended in cell grade DMSO to prepare 5 mM stock solutions. This stock was used to make a 1, 5, or 10 μM dilution of the probe in cell culture media. The diluted probe solutions were filtered through 0.22 µm filters before adding to the cells.
Murine microglial BV2 cells (10,000 cells/well) were seeded in a 96 well plate and cultured for 24 hours at 37° C. in a 5% CO2 incubator. Next day, the media was aspirated, and the cells were rinsed twice with PBS (pH 7.4) followed by treatment with 1, 5, or 10 μM of the probe solution made in DMSO (final DMSO concentration=0.05%) for 24 hours in the incubator. Next, the media was aspirated and 20 μL of 5 mg/mL 3-(4,5dimethylthiazol-2-yl)-2,5-diphenyltetrazolium bromide (MTT) solution was added to the cells and then incubated for three hours. The MTT solution was then removed and 100 μL DMSO was added to dissolve the violet formazan crystals. The plate was shaken for 5 minutes using an orbital shaker. The absorbance value at 450 nm was recorded and the percent cell metabolic activity was calculated as the ratio of sample absorbance to control absorbance.

[5] = system: primary mouse microglia; test: Flow cytometry analysis of probe fluorescence in live cells; type: cell-based; conditions: co-staining with MitoLite dye
Source text: FIGS. 3A-3E. […] Modal corresponds to a percentage of the maximum count. […] US Ctrl is unstained control. Gating strategy and flow plots with commercial dyes in supporting information.
A detailed protocol for the isolation and culture of primary microglia from adult mouse brains is previously described^2. Briefly, CD11^+ primary microglia were isolated from adult C57BL/6 mice aged 5-7 months of age (both male and female sexes) and cultured as follows. Mice were euthanized with CO2 following the PACUC guidelines, perfused brains were removed and cut into small pieces before homogenizing them in DPBS++with 0.4% DNase-I on the tissue dissociator at 37° C. After filtering the cells through a 70 μm filter, myelin was removed two times, first using gradient centrifugation with Percoll PLUS reagent followed by the use of myelin removal beads on the magnetic column separators. After myelin removal, CD11^+ cells were selected from the single cell suspension using the CD11^+ beads as per the manufacturer's instructions. […]
Primary mouse microglia were treated with 1, 5, or 10 μM fluorescent probes for 2 hours for the cells to uptake the probe. […] Around 10-20 thousand cells were gated from the live cells in order to analyze the cellular fluorescence signal corresponding to the LysoShine/Lysotracker or Mitoshine/MitoLite probes.

[6] = system: BV2 microglia; test: Cellular uptake of the fluorescent probes; type: in vitro ADME, mouse; conditions: 2 hour treatment, 10 μM, BV2
Method: FIG. 7 describes percent uptake efficiency of the fluorescent probes in BV2 microglia. Cellular uptake of the probe at different concentrations after two hours of incubation. The % uptake efficiency was determined as the percentage of probe taken up by cells out of the total amount of probe in the initial incubation solution. Bars depict n=3 data with SD.
Cellular uptake of the florescent probes was determined in-vitro as following: BV2 cells (20,000 cells/well) were seeded in a 96 well plate and cultured overnight at 37° C. in a 5% CO2 incubator. Next day, the media was removed, and the cells were treated with 1, 5, or 10 μM of the probes for 2 hours. After incubation, the supernatant was collected, and the absorbance was recorded at the respective absorbance maxima of the probe. This was compared with absorbance of the probe in media without cells. The percent cellular uptake was calculated as percentage of […]:
% Uptake Efficiency=1-[Asupernatant×100/Aprobe]

[7] = Absorption and fluorescence spectra at different pH solutions, pKa; type: physicochemical
Method: Spectrum recorded at room temperature in PBS buffer at varying pH with 1% (v/v) of DMSO, in all cases probe concentration=10 μM.
Next, we investigated the absorption and fluorescent properties of LysoShine 1, LysoShine 2, and MitoShine (FIG. 2). The LysoShine 1 in different pH solutions of phosphate buffer (1% DMSO in 1M PBS) has an absorption centered around 500 nm and emission maximum at 505 nm with 480 nm excitation. […] We tested the mitochondrial targeting property of MitoShine (max. absorption 505 nm, max. emission 535 nm, excitation 480 nm). […] We also tested the photophysical property of the important synthetic intermediate compound 10 (absorption maximum 505 nm, max, emission 510 nm at excitation 480 nm).

[8] = system: BV2 microglia; test: LDH cytotoxicity assay on BV2 microglia; type: cell-based, mouse; conditions: BV2
Method: as §1
The cytotoxicity of the fluorescent probes was determined using the Invitrogen™ CyQUANT™ LDH Cytotoxicity Assay kit which measures the release of Lactate dehydrogenase (LDH) from the dead and dying cells. The assay was performed per the manufacturer's protocol. Briefly, BV2 cells (5000 cells/100 μL/well) were seeded in a 96 well plate and cultured for 24 hours at 37° C. in a 5% CO2 incubator. After 24 hours, the media was removed, and the cells were treated with 1, 5, or 10 μM of the probes for 2 or 24 hours of incubation. Three additional wells were treated with the given lysis buffer for 45 minutes (positive control). After the corresponding incubation period, the total LDH release was measured using a fluorescent plate reader. The cells without any probe treatment correspond to spontaneous LDH release and were taken as negative control and the cells treated with the lysis buffer correspond to maximum LDH release. The percentage cytotoxicity of the probes was determined as follows: […]

Row | Compound | solubility in aqueous medium ([1]; aqueous medium) | solubility in DMSO: acetonitrile ([1]; mixture of DMSO: acetonitrile) | pH at which significant fluorescence is shown [2] | localization of the probe within cell organelles [3] | cellular metabolic activity ([4]; 1 μM) | cellular metabolic activity ([4]; 5 μM or higher) [%] | solubility upon addition of pH solutions ([1]; final DMSO concentration 1%) | live cells positive for probe and MitoLite [5] | uptake efficiency [6] [%] | pKa ([7]; PBS buffer at varying pH, 1% (v/v) DMSO, probe 10 μM, room temperature) | emission maximum ([7]; excitation 480 nm, pH solutions of phosphate buffer, 1% DMSO) [nm] | pH at which high fluorescence is shown ([7]; pH buffer solutions) | absorption maximum ([7]; pH solutions of phosphate buffer, 1% DMSO) [nm] | cytotoxicity (LDH release) ([8]; 2 hour, 1 and 5 μM) | cytotoxicity (LDH release) ([8]; 24 hours, 10 μM and 5 μM)
1 | CCOC(=O)C1=C(C)C2=C(c3ccc(N(C)C)cc3)c3c(C)c(C(=O)OCC)c(C=Cc4ccc(O)c([N+](=O)[O-])c4)n3[B-](F)(F)[N+]2=C1C [Compound 6b, Diethyl (E)-10-(4-(Dimethylamino)phenyl)-5,5-difluoro-3-(4-hydroxy-3-nitrostyryl)-1,7,9-trimethyl-5H-414,514-dipyrrolo[1,2-c:2′,1′-f][1,3,2]diazaborinine-2,8-dicarboxylate] | sparingly soluble | soluble | less than 6 | – | – | – | – | – | – | – | – | – | – | – | –
2 | CCOC(=O)C1=C(C)C2=C(c3ccc(NC(=O)C[P+](c4ccccc4)(c4ccccc4)c4ccccc4)cc3)c3c(C)c(C(=O)OCC)c(C)n3[B-](F)(F)[N+]2=C1C.[Br-] [MitoShine, (2-((4-(2,8-bis(ethoxycarbonyl)-5,5-difluoro-1,3,7,9-tetramethyl-5H-414,514-dipyrrolo[1,2-c:2′, 1′-f][1,3,2]diazaborinin-10-yl)phenyl)amino)-2-oxoethyl)triphenylphosphonium bromide] | – | – | – | co-localized with MitoLite; also recorded: colocalization of MitoShine in both mitochondrial as well as in lysosomal organelles | high cellular metabolic activity | 10 | maintains its solubility | around 87% | 30 | 4.4 | 535 | 4 | 505 | no cytotoxicity | around 20%
